This is an account of results in the NIST ThermoML archive (doi:10.1016/j.tca.2016.08.003).

Data set [1] in a line: Molar enthalpy of transition or fusion. The following applies: Crystal; DSC.
The conditions of data set [2]: Crystal; DTA.

± gives the expanded uncertainty stated by the source.

Turning to `O=[N+]([O-])[O-].[Rb+]` [rubidium nitrate], the “Molar enthalpy of transition or fusion” value in data set [1] is 1.17 ± 0.0741 kcal/mol. The Normal melting temperature in data set [2] turned out to be 309.50 ± 2 °C.

`O=[N+]([O-])[O-].[Na+]` [sodium nitrate]: the “Molar enthalpy of transition or fusion” value in data set [1] was 3.7 ± 0.0813 kcal/mol. In addition, in data set [2], the Normal melting temperature came out at 305.90 ± 0.6 °C.

As for `O=[N+]([O-])[O-].[K+]` [potassium nitrate], the “Molar enthalpy of transition or fusion” value in data set [1] stood at 2.49 ± 0.0717 kcal/mol. In data set [2], the Normal melting temperature is 333.80 ± 1.1 °C.
